Assay results from patent US20220153746A1, “NITROGEN OXIDE-DONATING PDE-5 AND/OR PDE-6 INHIBITOR COMPOUNDS, AND USES THEREOF” (ILDONG PHARMACEUTICAL CO., LTD., priority 2020, published 2022).

Tests used:
[1] = Plasma protein binding assay (equilibrium dialysis); assay type: in vitro ADME; settings: human plasma, dialysis 4 hours at 37° C.
Procedure: (§1) The dialysis device used in this example is a 96-well equilibrium dialysis plate (Cat #1006, HT Dialysis LLC, Gales Gerry, CT), and HTD 96 a/b dialysis membrane strips (Cat #1101, MWCO 12-14 kDa, HT Dialysis LLC). The dialysis device was assembled following the manufacturer's instructions.
(§2) The dialysis membrane strips were soaked in ultra-pure water at room temperature for approximately 1 hour. Each membrane strip containing 2 membranes was separated and soaked in 20:80 ethanol/water (v/v) for approximately 20 minutes, after which they were ready for used or were stored in the solution at 2-8° C. for up to a month. Prior to experiment, the membrane was rinsed and soaked for 20 minutes in ultra-pure water.
(§3) On the day of the experiment, the plasma was thawed by running under col tap water and centrifuged at 3220 rpm for 5 minutes to remove any clos. The pH value of the resulting plasma was checked. Only plasma with pH value with 7.0-8.0 could be used.
(§4) Both test and control compounds were dissolved in DMSO to achieve 10 mM stock solutions. Working solutions (400 μM) if test and control compounds were prepared by diluting 10μ of stock solutions with 240 μL of DMSO. Loading matrix solutions (2 μM) of both test and control compounds were prepared by diluting 5 μL of working solutions with 995 μL of blank matrix.
(§5) To prepare the loading matrix containing the test compound or control compounds, aliquots of either test compound working solutions or control compound working solution were spiked into blank matrix to achieve final test concentrations. The concentration of organic solvent in the final solutions were no more than 1% (normally 0.5%). The samples were mixture thoroughly before being used.
(§6) To prepare the time zero (T0) samples to be used for recovery determinations. 50 μL aliquots of loading matrix solution were transferred in triplicate to the sample collection plate. The samples were immediately matched with opposite blank buffer to obtain a final volume of 100 μL of 1:1 matrix/dialysis buffer (v/v) in each well. 500 μL of stop solution were added to these T0 samples. They were then stored at 2-8° C. pending further processes along with other post-dialysis samples.
(§7) To load the dialysis device, an aliquot of 150 μL of the loading matrix was transferred to the donor side of each dialysis well in triplicate, and 150 μL of the dialysis buffer was loaded to the received side of the well. The dialysis was placed in humidified incubator at 37° C. with 5% CO2 on a shaking platform that rated slowly (about 100 rpm) for 4 hours.
(§8) At the end of the dialysis, aliquots of 50 μL of samples were taken from both the buffer side and the matrix side of the dialysis deice. These samples were transferred into new 96-well plates (the sample collection plates). Each sample was mixed with an equal volume of opposite blank matrix (buffer or matrix) to reach a final volume of 100 μL of 1:1 matrix/dialysis buffer (v/v) in each well. All samples were further processed by adding 500 μL of stop solution containing internal standards. The mixture was vortexed and centrifuged at 4000 rpm for about 20 minutes. An aliquot of 100 μL of supernatant of all the samples were then removed for LC-MS/MS analysis.
(§9) The single blank samples were prepared by transferring 50 μL of blank matrix to a 96 well plate and adding 50 μL of blank PBS buffer to each well. The blank plasma must match the species of plasma used in the plasma side of the well. Then the matrix-matched samples were further processed by adding 500 μL of stop solution containing internal standards, following the same sample processing method as the dialysis samples.

[2] = tested on: human plasma proteins; assay: as above; assay type: in vitro ADME; settings: 2 μM, dialysis 4 hours at 37° C.
Procedure: as §1, §2, §3, §4, §5, §6, §7, §8, §9

[3] = Metabolic stability in human liver microsomes; assay type: in vitro ADME; settings: 37° C., 0-60 minutes
Procedure: This example illustrates the metabolic stability of selected compounds in human liver microsomes samples.
Both test and control compound solutions were prepared by diluting 5 μL of the respective stock solutions (10 mM in DMSO) containing either the test or control compound with 495 μL of acetonitrile (ACN) to give intermediate solutions with concentrations of 100 μM (99% ACN).
β-Nicotinamide adenine dinucleotide phosphate tetrasodium salt (NADPH.4Na) was purchased from BONTAC (cat. No. BT04). The NADPH working solution (10 unit/mL) was prepared by combining the appropriate amount of NADPH powder and a MgCl2 solution (10 mM) to give final concentration in the reaction system of 1 unit/mL.
The appropriate concentrations of the microsome working solutions were prepared in 100 mM potassium phosphate buffer.
Cold (4° C.) acetonitrile solution containing 200 ng/mL tolbutamide and 200 ng/mL labetalol (internal standard) was used as the stop solution.
Liver microsomes solution was diluted to 0.56 mg/mL in 100 mM phosphate buffer, and 445 μL of this solution was transferred into pre-warmed (10 minutes) “incubation” plates T60 and NCF60; the “incubation” plates T60 and NCF60 were pre-warmed for 10 minutes at 37° C. with constant shaking.
54 μL of the liver microsome solutions was transferred to the blank plate, followed by addition of 6 μL of the NAPDH cofactor solution and 180 μL of the quenching solution to the same blank plate.
5 μL of the compound working solution (100 μM concentration) was next added to into the “incubation” plates (T60 and NCF60) containing microsomes and mixed 3 times thoroughly. For the NCF60 plate, 50 μL of the buffer solution was added, mixed 3 times thoroughly, and incubated at 37° C. for 60 minutes under constant shaking.
In the “Quenching” plate at T0 (T=0 min), 180 μL of quenching solution and 6 μL of the NAPDH cofactor solution were added, and the resulting plate was chilled to prevent evaporation.
In the T60 plate, after it was thoroughly mixed, 54 μL of the mixture was immediately transferred to the “quenching” plate for the 0-minute time point, followed by addition of 44 μL of NAPDH cofactor solution to the incubation plate (T60). The resulting mixture was then incubated at 37° C. for 60 minutes under constant shaking. At time points of 5, 10, 20, 30 and 60 minutes, 180 μL of the quenching solution was added to the “quenching” plates, followed by serial transfer of 60 μL of the mixture (per time point) from the T60 plate to the “Quenching” plates.
For the NCF60 plates, 60 μL of the sample solution was transferred from the NCF60 incubation plate to the “Quenching” plate containing quenching solution at T=60 min time point. […]

[4] = molecular target: human PDE-5A1 (Homo sapiens, UniProt O76074); assay: Human PDE-5A1 inhibition assay (fluorescence polarization, FAM-cGMP); assay type: biochemical; settings: read-out: IC50 (μM) PDE5A1
[5] = molecular target: human PDE-6C (Homo sapiens, UniProt P51160); assay: Human PDE-6C inhibition assay (fluorescence polarization, FAM-cGMP); assay type: biochemical; settings: read-out: IC50 (μM) PDE6C
Sequence of human PDE-6C (P51160 whole entry): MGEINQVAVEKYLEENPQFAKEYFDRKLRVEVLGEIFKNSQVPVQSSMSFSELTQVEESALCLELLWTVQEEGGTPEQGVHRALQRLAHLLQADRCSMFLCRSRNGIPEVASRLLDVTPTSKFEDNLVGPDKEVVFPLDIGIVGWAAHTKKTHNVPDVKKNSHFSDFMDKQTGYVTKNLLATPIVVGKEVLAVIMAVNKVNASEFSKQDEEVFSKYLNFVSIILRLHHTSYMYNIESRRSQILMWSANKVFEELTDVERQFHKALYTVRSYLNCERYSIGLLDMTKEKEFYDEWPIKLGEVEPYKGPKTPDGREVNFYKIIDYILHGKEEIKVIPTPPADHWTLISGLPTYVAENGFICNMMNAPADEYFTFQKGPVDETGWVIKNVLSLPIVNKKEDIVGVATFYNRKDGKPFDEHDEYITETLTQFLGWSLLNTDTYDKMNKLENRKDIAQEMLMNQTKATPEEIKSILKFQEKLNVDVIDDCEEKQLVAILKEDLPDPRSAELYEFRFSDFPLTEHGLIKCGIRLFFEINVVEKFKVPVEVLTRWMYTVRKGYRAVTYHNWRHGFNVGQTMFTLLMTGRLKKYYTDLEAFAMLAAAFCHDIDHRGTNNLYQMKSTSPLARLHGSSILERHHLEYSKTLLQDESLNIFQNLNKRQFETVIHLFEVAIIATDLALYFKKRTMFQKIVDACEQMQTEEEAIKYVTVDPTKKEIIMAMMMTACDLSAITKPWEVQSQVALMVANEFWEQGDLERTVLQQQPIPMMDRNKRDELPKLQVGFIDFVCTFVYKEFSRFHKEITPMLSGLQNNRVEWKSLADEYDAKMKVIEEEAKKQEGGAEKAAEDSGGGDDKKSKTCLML

Row | SMILES | fraction unbound at 4 h, 2 µM [1] | % Bound [2] [%] | CLint scaled at 1 µM [3] [mL/min/kg] | IC50 [4] [µM] | IC50 [5] [µM]
1 | CCCc1nn(C)c2c(=O)[nH]c(-c3cc(S(=O)(=O)N4CC(NCCCO)C4)ccc3OCC)nc12 [Compound 10, 5-(2-ethoxy-5-((3-((3-hydroxypropyl)amino)azetidin-1-yl)sulfonyl)phenyl)-1-methy-3-propyl-1,6-dihydro-7H-pyrazolo[4,3-d]pyrimidin-7-one] | 0.138 | 86.19 | 55 |  | 
2 | CCCc1nn(C)c2c(=O)[nH]c(-c3cc(S(=O)(=O)N4CC(NCCCO[N+](=O)[O-])C4)ccc3OCC)nc12 [Compound 22, 3-((1-((4-ethoxy-3-(1-methyl-7-oxo-3-propyl-6,7-dihydro-1H-pyrazolo[4,3-d]pyrimidin-5-yl)phenyl)sulfonyl)azetidin-3-yl)amino)propyl nitrate] | 0.0247 | 97.53 | 358 | < 0.01 | < 0.01
